Measured values reported in US7776833B2, “Use of cyclic bioisosters of purine system derivatives for treating diseases produced by disorders of niterergic and dopaminergic systems” (priority 2003, dated 2010).

Columns and labels:
Format in all cases: in vivo, Wistar rats
[1] = test system: nitrites and nitrates (NOx-); test: Measurement of nitrates/nitrites (NOx-) in brain regions after the morphine abstinence experiment; details: 3 x 20 mg/kg intramuscularly
Procedure: (§1) After the above experiments the rat brains were isolated and immediately placed in the ice cold 0.9% solution of sodium chloride. After cooling the following structures were isolated from the brain: cerebral cortex, hippocampus, mesencephalon, striatum, brainstem, hypothalamus and cerebellum. The isolated tissue was homogenized in a Potter S homogenizer for 3 minutes at 1500 rpm in 4-5 volumes of 20 mM HEPES (pH 7.5) at 4° C. The supernatants were centrifuged for 30 minutes at 11000 g at 4° C., and aliquots of the obtained supernatants were taken for determining nitrates and nitrites (NOx-), while the remaining part was mixed with cooled 20 mM of HEPES (pH 7.5), containing 0.5 mM ethylenediamine tetraacetate (EDTA), 1 mM dithiotreitol (DDT), 1 mM phenylmethylsulfonyl fluoride (PMSF), aprotinine and leupeptine at a concentration of 5 μg/ml, this mixture being used for determining nitric oxide synthase (NOS) activity.
To estimate the intensity of metabolism of nitric oxide in rats, quantitative determination of stable metabolites of nitrogen oxide-nitrites and nitrates (NOx-) was performed using a fluorometric method by fluorescence of naphthotriazole, a product of reaction of 2,3- diaminonaphthalene (DAN) and nitrite in an acidic medium (Misko T. R., Schilling R. J., Salvemini D. et al. A fluorometric assay for the measurement of nitrite in biological samples. Anal. Biochem., 1993, V. 214, p.11-16) with modifications (Lei B., Adachi N., Nagaro T., Arai T. Measurement of total nitric oxide metabolite (NO (x) (-)) levels in vivo. Brain. Res. Protoc., 1999, V. 4, p. 415-419).
The supernatants of brain deproteinized at 100° C. were placed in a nitrite recovery system containing 0.125 unit/ml of nitrate reductase, 25 μM NADPH and 25 μM FAD prepared in 20 mM Tris-HCl buffer pH 7.6 and incubated for 30 minutes at 37° C. For oxidation of NADPH a lactate dehydrogenase (LDH)/pyruvate system was used. Then 316.0 μM DAN solution in 0.62 M HCl was added and the mixture was incubated for 10 minutes in dark. For stabilization of fluorescence of the formed naphthotriazole, 280 mM NaOH was added. The fluorescence intensity was measured using spectrofluorometer Hitachi F-3000 at a wavelength of excitation 365 nm and emission 405 nm. To calculate the concentration of NOx- in the brain a standard solution of sodium nitrate was used. The concentration of NOx- was expressed in nmol/mg of protein.
(§2) The content of protein in the samples was determined by the Bradford method (Bradford M. M. A rapid and sensitive method for quantitation of microgram quantities of protein using the principle of protein binding . Anal. Biochem., 1976, V. 72, p. 248-254) using Coumassi dye. The statistical analysis was performed using methods appropriate for respective experiments. The data are expressed as mean±standard error of mean.

[2] = test system: physical dependence from morphine (morphine abstinence); test: Morphine abstinence syndrome, signs scored in the open field test; details: Morphine − (morphine + compound); compound 3 x 20 mg/kg intramuscularly; one value for the three compounds
Procedure: Thirty six hours after the last injection selected motor and autonomice parameters which are specific symptoms of abstinence were monitored in the <<open field>> test (an arena with a diameter of 120 cm and wall height of 40 cm).
Med., 2002, V.29, p.1-6.). The observable signs were recorded quantitatively (if it was possible) with further assignment of an index to each sign (depending on the specific feature of the sign) and calculation of the sum of scores. The expression of the abstinence syndrome was presented as a sum of scores. The results were processed using nonparametric statistical analysis based on the Mann-Whitney test.

[3] = test system: nitric oxide synthase (NOS); test: Nitric oxide synthase activity in brain regions, radiometric [3H]L-citrulline method; details: 3 x 20 mg/kg intramuscularly
Procedure: as §1
The activity of nitric oxide synthase (NOS) was determined using a radiometric method by the rate of L-citrulline accumulation in a reaction of [^3H] L-arginine oxidation catalyzed by NOS (Bredt M., Snyder S. Nitric oxide mediates glutamate-linked enhancement of cGMP levels in the cerebellum. Proc. Natl. Acad. Sci., USA, 1989, V.86, p.9030-9033). The formation of L-citrulline in this reaction is equivalent to a biosynthesis of nitric oxide.
The reaction was initiated by adding brain supernatant in the reaction medium containing 2 μCi/ml of [3H] L-arginine, 20 mM HEPES (pH 7.4), 0.2 mM CaCl2, 5 μM FAD, 5 μM FMN, 1 mM NADPH, 50 μM of BH4. After 15-60 minutes of incubation at 37° C. a suspension of Dowex 50WX8-400 (Na^+-form), which sorbs unreacted [^3H]L-arginine, but not [^3H] L-citrulline was added to the samples. After the sorption the radioactivity of the samples was determined on a scintillation counter SL-4000 (“Intertechnique”). The activity of Ca^2+-dependent and Ca^2+-independent NOS isoforms was determined by the difference of rates of [^3H]L-citrulline formation in three parallel samples containing 2 mM EDTA (Ca^2+ chelator), 2 mM EDTA+2 mM L-NAME (inhibitor all NOS isoforms) or without inhibitors. The enzyme activity was expressed in rnol [^3H]L-citrulline acumulated per 1 minute on 1 mg of supernatant protein.
as §2

[4] = Groups Nos. 3-14, compound without morphine, one value for all 12 compounds
[5] = Morphine + compound, one value for the three compounds

SMILES | Nitrites, brainstem [1, 4] | Nitrites, cerebellum [1, 4] | Nitrites, cerebral cortex [1, 4] | Nitrites, hippocampus [1, 4] | Nitrites, hypothalamus [1, 4] | Nitrites, midbrain [1, 4] | Nitrites, striatum [1, 4] | Nitrites, brainstem [1, 5] | Nitrites, cerebellum [1, 5] | Nitrites, cerebral cortex [1, 5] | Nitrites, hippocampus [1, 5] | Nitrites, hypothalamus [1, 5] | Nitrites, midbrain [1, 5] | Nitrites, striatum [1, 5] | Authentic differences (ξ-square criterion) in appearance of signs of abstinence: <<Wet dog>> shakes [2] | Authentic differences (ξ-square criterion) in appearance of signs of abstinence: Aggression [2] | Authentic differences (ξ-square criterion) in appearance of signs of abstinence: Convulsions [2] | Authentic differences (ξ-square criterion) in appearance of signs of abstinence: Diarrhea [2] | Authentic differences (ξ-square criterion) in appearance of signs of abstinence: Dyspnea [2] | Authentic differences (ξ-square criterion) in appearance of signs of abstinence: Forelimb jogging [2] | also measured
Nc1cnc2c(=O)n([C@@H]3O[C@H](CO)[C@@H](O)[C@H]3O)[nH]c(=O)c2n1.[Na] [Compound 21, sodium salt of 3-amino-7-(β-D-ribofuranosile)pyrazino[2,3-d]-6H-pyridazine-5,8-dione] | 6.31 ± 0.58 nmol/mg of protein | 6.66 ± 0.63 nmol/mg of protein | 4.31 ± 0.37 nmol/mg of protein | 6.47 ± 0.72 nmol/mg of protein | 6.77 ± 0.83 nmol/mg of protein | 6.65 ± 0.70 nmol/mg of protein | 6.11 ± 0.29 nmol/mg of protein | 7.07 ± 0.85 nmol/mg of protein | 5.76 ± 0.49 nmol/mg of protein | 4.62 ± 0.27 nmol/mg of protein | 5.27 ± 0.41 nmol/mg of protein | 6.87 ± 0.75 nmol/mg of protein | 5.99 ± 0.58 nmol/mg of protein | 3.57 ± 0.42 nmol/mg of protein | 0.7821 | 0.7921 | 0.3456 | 0.0067 | 0.0567 | 0.6745 | Authentic differences (ξ-square criterion) in appearance of signs of abstinence: Grit with teeth [2]: 0.2994; Authentic differences (ξ-square criterion) in appearance of signs of abstinence: Mastication [2]: 0.1975; Authentic differences (ξ-square criterion) in appearance of signs of abstinence: Piloerection [2]: 0.2567; Authentic differences (ξ-square criterion) in appearance of signs of abstinence: Ptosis [2]: 0.0105; Authentic differences (ξ-square criterion) in appearance of signs of abstinence: Rhinorrhea [2]: 0.2131; Authentic differences (ξ-square criterion) in appearance of signs of abstinence: Squeak when touched [2]: 0.1968; Activity of NOS, hippocampus [3, 4]: 3.09 ± 0.16 nmol/min/mg of protein; Activity of NOS, hypothalamus [3, 4]: 5.45 ± 0.24 nmol/min/mg of protein; Activity of NOS, midbrain [3, 4]: 2.60 ± 0.29 nmol/min/mg of protein; Activity of NOS, striatum [3, 4]: 1.26 ± 0.08 nmol/min/mg of protein; Activity of NOS, hippocampus [3, 5]: 2.33 ± 0.11 nmol/min/mg of protein; Activity of NOS, hypothalamus [3, 5]: 5.47 ± 0.32 nmol/min/mg of protein; Activity of NOS, midbrain [3, 5]: 2.03 ± 0.31 nmol/min/mg of protein; Activity of NOS, striatum [3, 5]: 1.21 ± 0.10 nmol/min/mg of protein
O=C([O-])c1cnc2c(=O)[nH]n([C@@H]3O[C@H](CO)[C@@H](O)[C@H]3O)c(=O)c2n1.O=C([O-])c1cnc2c(=O)[nH]n([C@@H]3O[C@H](CO)[C@@H](O)[C@H]3O)c(=O)c2n1.[Na+].[Na+] [Compound 24, disodium salt of 2-carboxy-7-(β-D-ribofuranosile)pyrazino[2,3-d]-6H-pyridazine-5,8-dione] | 6.31 ± 0.58 nmol/mg of protein | 6.66 ± 0.63 nmol/mg of protein | 4.31 ± 0.37 nmol/mg of protein | 6.47 ± 0.72 nmol/mg of protein | 6.77 ± 0.83 nmol/mg of protein | 6.65 ± 0.70 nmol/mg of protein | 6.11 ± 0.29 nmol/mg of protein | 7.07 ± 0.85 nmol/mg of protein | 5.76 ± 0.49 nmol/mg of protein | 4.62 ± 0.27 nmol/mg of protein | 5.27 ± 0.41 nmol/mg of protein | 6.87 ± 0.75 nmol/mg of protein | 5.99 ± 0.58 nmol/mg of protein | 3.57 ± 0.42 nmol/mg of protein | 0.7821 | 0.7921 | 0.3456 | 0.0067 | 0.0567 | 0.6745 | Authentic differences (ξ-square criterion) in appearance of signs of abstinence: Grit with teeth [2]: 0.2994; Authentic differences (ξ-square criterion) in appearance of signs of abstinence: Mastication [2]: 0.1975; Authentic differences (ξ-square criterion) in appearance of signs of abstinence: Piloerection [2]: 0.2567; Authentic differences (ξ-square criterion) in appearance of signs of abstinence: Ptosis [2]: 0.0105; Authentic differences (ξ-square criterion) in appearance of signs of abstinence: Rhinorrhea [2]: 0.2131; Authentic differences (ξ-square criterion) in appearance of signs of abstinence: Squeak when touched [2]: 0.1968; Activity of NOS, hippocampus [3, 4]: 3.09 ± 0.16 nmol/min/mg of protein; Activity of NOS, hypothalamus [3, 4]: 5.45 ± 0.24 nmol/min/mg of protein; Activity of NOS, midbrain [3, 4]: 2.60 ± 0.29 nmol/min/mg of protein; Activity of NOS, striatum [3, 4]: 1.26 ± 0.08 nmol/min/mg of protein; Activity of NOS, hippocampus [3, 5]: 2.33 ± 0.11 nmol/min/mg of protein; Activity of NOS, hypothalamus [3, 5]: 5.47 ± 0.32 nmol/min/mg of protein; Activity of NOS, midbrain [3, 5]: 2.03 ± 0.31 nmol/min/mg of protein; Activity of NOS, striatum [3, 5]: 1.21 ± 0.10 nmol/min/mg of protein
